Test results from PubChem BioAssay (NCI).
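Assay format: 96-well plates, 48-hour exposure. TGI denotes the concentration required for complete inhibition of growth.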

What was measured:
Assay in all cases: inhibition of tumour cell growth, NCI panel, 48 h
SNB-19 CNS = test system: SNB-19 CNS
HOP-92 NSCLC = test system: HOP-92 NSCLC
IGROV1 ovarian = test system: IGROV1 ovarian
SF-539 CNS = test system: SF-539 CNS
ACHN renal = test system: ACHN renal
UACC-257 melanoma = test system: UACC-257 melanoma
SF-295 CNS = test system: SF-295 CNS
TK-10 renal = test system: TK-10 renal
HT29 colon = test system: HT29 colon
A549 NSCLC = test system: A549 NSCLC
UO-31 renal = test system: UO-31 renal
SNB-75 CNS = test system: SNB-75 CNS
786-0 renal = test system: 786-0 renal
RPMI-8226 leukemia = test system: RPMI-8226 leukemia
M14 melanoma = test system: M14 melanoma
HL-60(TB) leukemia = test system: HL-60(TB) leukemia
NCI-H23 lung = test system: NCI-H23 lung
SK-MEL-28 melanoma = test system: SK-MEL-28 melanoma
LXFL 529 NSCLC = test system: LXFL 529 NSCLC
M19-MEL melanoma = test system: M19-MEL melanoma
SK-MEL-5 melanoma = test system: SK-MEL-5 melanoma
DMS 114 small cell lung = test system: DMS 114 small cell lung
KM12 colon = test system: KM12 colon
OVCAR-3 ovarian = test system: OVCAR-3 ovarian
CCRF-CEM leukemia = test system: CCRF-CEM leukemia
K-562 leukemia = test system: K-562 leukemia
COLO 205 colon = test system: COLO 205 colon
HCC-2998 colon = test system: HCC-2998 colon
HCT-15 colon = test system: HCT-15 colon
XF 498 CNS = test system: XF 498 CNS
MALME-3M melanoma = test system: MALME-3M melanoma
OVCAR-4 ovarian = test system: OVCAR-4 ovarian
NCI-H460 lung = test system: NCI-H460 lung
SN12C renal = test system: SN12C renal
SR leukemia = test system: SR leukemia
OVCAR-8 ovarian = test system: OVCAR-8 ovarian
RXF 393 renal = test system: RXF 393 renal
OVCAR-5 ovarian = test system: OVCAR-5 ovarian
SNB-78 CNS = test system: SNB-78 CNS
NCI-H226 lung = test system: NCI-H226 lung
RXF-631 renal = test system: RXF-631 renal
U251 CNS = test system: U251 CNS
UACC-62 melanoma = test system: UACC-62 melanoma
LOX IMVI melanoma = test system: LOX IMVI melanoma
DMS 273 small cell lung = test system: DMS 273 small cell lung
DLD-1 colon = test system: DLD-1 colon
MOLT-4 leukemia = test system: MOLT-4 leukemia
HOP-62 NSCLC = test system: HOP-62 NSCLC
SK-MEL-2 melanoma = test system: SK-MEL-2 melanoma
EKVX NSCLC = test system: EKVX NSCLC
NCI-H522 lung = test system: NCI-H522 lung
HOP-18 NSCLC = test system: HOP-18 NSCLC
KM20L2 colon = test system: KM20L2 colon

SMILES: CC1(O)C(C)(O)C2(C)O[Te]3(OC12C)OC1(C)C(C)(O)C(C)(O)C1(C)O3 (configuration not stated)
- TGI (SNB-19 CNS): > 100 µM
- TGI (HOP-92 NSCLC): 49.2 µM
- TGI (IGROV1 ovarian): 35.7 µM
- TGI (SF-539 CNS): > 100 µM
- TGI (ACHN renal): > 100 µM
- TGI (UACC-257 melanoma): > 100 µM
- TGI (SF-295 CNS): > 100 µM
- TGI (TK-10 renal): > 100 µM
- TGI (HT29 colon): > 100 µM
- TGI (A549 NSCLC): 79 µM
- TGI (UO-31 renal): 87.5 µM
- TGI (SNB-75 CNS): > 100 µM
- TGI (786-0 renal): > 100 µM
- TGI (RPMI-8226 leukemia): 37.9 µM
- TGI (M14 melanoma): > 100 µM
- TGI (HL-60(TB) leukemia): 31.5 µM
- TGI (NCI-H23 lung): 29.7 µM
- TGI (SK-MEL-28 melanoma): 38.1 µM
- TGI (LXFL 529 NSCLC): 31.4 µM
- TGI (M19-MEL melanoma): 70.8 µM
- TGI (SK-MEL-5 melanoma): 32.7 µM
- TGI (DMS 114 small cell lung): 54.4 µM
- TGI (KM12 colon): > 100 µM
- TGI (OVCAR-3 ovarian): 41.5 µM
- TGI (CCRF-CEM leukemia): 22.9 µM
- TGI (K-562 leukemia): 39 µM
- TGI (COLO 205 colon): > 100 µM
- TGI (HCC-2998 colon): > 100 µM
- TGI (HCT-15 colon): 34.4 µM
- TGI (XF 498 CNS): > 100 µM
- TGI (MALME-3M melanoma): > 100 µM
- TGI (OVCAR-4 ovarian): 77.9 µM
- TGI (NCI-H460 lung): 47.9 µM
- TGI (SN12C renal): > 100 µM
- TGI (SR leukemia): 51.3 µM
- TGI (OVCAR-8 ovarian): 32 µM
- TGI (RXF 393 renal): 37.6 µM
- TGI (OVCAR-5 ovarian): 29.4 µM
- TGI (SNB-78 CNS): > 100 µM
- TGI (NCI-H226 lung): 89.2 µM
- TGI (RXF-631 renal): > 100 µM
- TGI (U251 CNS): 23.8 µM
- TGI (UACC-62 melanoma): > 100 µM
- TGI (LOX IMVI melanoma): 18.9 µM
- TGI (DMS 273 small cell lung): 67.3 µM
- TGI (DLD-1 colon): > 100 µM
- TGI (MOLT-4 leukemia): 34.5 µM
- TGI (HOP-62 NSCLC): > 100 µM
- TGI (SK-MEL-2 melanoma): > 100 µM
- TGI (EKVX NSCLC): > 100 µM
- TGI (NCI-H522 lung): 42.2 µM

SMILES: CCC(=O)OC[n+]1ccc2c(C)c3[nH]c4ccccc4c3c(C)c2c1
- TGI (HOP-92 NSCLC): 2.34 µM
- TGI (ACHN renal): 1.76 µM
- TGI (SF-295 CNS): 1.88 µM
- TGI (HOP-18 NSCLC): 0.701 µM
- TGI (TK-10 renal): 3.18 µM
- TGI (HT29 colon): 2.36 µM
- TGI (SNB-75 CNS): 2.55 µM
- TGI (RPMI-8226 leukemia): 2.2 µM
- TGI (HL-60(TB) leukemia): 6.18 µM
- TGI (LXFL 529 NSCLC): 1.78 µM
- TGI (KM20L2 colon): 2.3 µM
- TGI (M19-MEL melanoma): 2 µM
- TGI (SK-MEL-5 melanoma): 2.51 µM
- TGI (DMS 114 small cell lung): 1.95 µM
- TGI (OVCAR-3 ovarian): 2.68 µM
- TGI (CCRF-CEM leukemia): 2.68 µM
- TGI (COLO 205 colon): 1.55 µM
- TGI (SR leukemia): 0.553 µM
- TGI (OVCAR-5 ovarian): 1.91 µM
- TGI (RXF-631 renal): 1.91 µM
- TGI (MOLT-4 leukemia): 0.725 µM
